Experimental data published in patent publication US20260049072A1, “HETEROCYCLIC COMPOUND FOR INDUCING DEGRADATION OF MUTANT KRAS PROTEIN” (Astellas Pharma Inc., priority 2022, published 2026).
pIC50: −log10 of the molar value. Where two headings read alike, the source gives them in different places.

Columns and labels:
[1] = biological target: T1, RAS G12D (Homo sapiens, UniProt P01116, G12D); assay: RAS G12D degradation activity, Cell ELISA, AsPC-1; format: cell-based; settings: AsPC-1 cells, 24 hours; read-out: DC50 (RAS G12D 50% degradation value)
T1 construct: host or cells: AsPC-1 human pancreatic cancer cells
T1 sequence (P01116 1-188 isoform P01116-2 G12D): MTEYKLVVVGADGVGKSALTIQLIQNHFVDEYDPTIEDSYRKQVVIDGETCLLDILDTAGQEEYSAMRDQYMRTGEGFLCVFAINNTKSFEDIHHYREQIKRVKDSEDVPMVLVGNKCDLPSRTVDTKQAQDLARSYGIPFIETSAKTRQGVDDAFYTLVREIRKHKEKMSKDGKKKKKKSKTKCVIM
Description: Test Example 1-2: Evaluation of RAS G12D Degradation Activity on Human KRAS G12D Mutant-Positive Pancreatic Cancer Line AsPC-1
The RAS G12D degradation activities of subject compounds were evaluated in the same manner as in Test Example 1-1 by measuring the expression levels of RAS G12D by a Cell ELISA method.
AsPC-1 cells (ATCC, CRL-1682) were seeded at 36 μL per well on a 384-well plate to give 2.0×10^4 cells per well. As for the cell culture conditions, RPMI-1640 medium (from Sigma-Aldrich) containing 10% fetal bovine serum was used in the presence of 5% CO2 at 37° C.
The next day, the subject compounds (10 points having final concentrations in the range of 3 μM to 0.1 nM) and DMSO, which was the solvent for the subject compounds, as a negative control were diluted 100-fold with a fresh medium and were each added at 4 μL per well, followed by culturing for 24 hours.
The next day, the procedures from the immobilization of the cells to before the addition of the blocking solution were performed by the same methods as in Test Example 1-1. A blocking solution (Intercept Blocking Buffer; from LI-COR Biosciences) was added at 20 μL per well. After allowing the plate to stand for 30 minutes at room temperature, the supernatant was removed by centrifugation. A solution obtained by diluting an anti-R-actin antibody (1,000-fold dilution) with the blocking solution was added to the wells of the positive control as a primary antibody, and a solution obtained by diluting an anti-Ras (G12D Mutant Specific) antibody (Ras (G12D Mutant Specific) (D8H7) Rabbit mAb; from Cell Signaling Technology; 1,000-fold dilution) and an anti-3-actin antibody (1,000-fold dilution) with the blocking solution was added to the other wells as primary antibodies, each at 15 μL per well. The plate was allowed to stand overnight at 4° C.
The next day, the supernatant was removed by centrifugation, and the plate was washed with PBS. The supernatant was removed by centrifugation, and a solution obtained by diluting an anti-rabbit IgG antibody and an anti-mouse IgG antibody 1,000-fold with the blocking solution was added at 15 μL per well as secondary antibodies. After allowing the plate to stand at room temperature for an hour, the supernatant was removed by centrifugation, and the plate was washed with PBS. After removing the supernatant, the plate was dried as it was with air at room temperature for two hours or more, and the 700-nm and 800-nm fluorescent signals were measured with Aerius.
With the RAS G12D signaling value at the time of addition of DMSO corrected with the signaling value of β-actin taken as 0% and with the RAS G12D signaling value under the conditions of staining with the anti-β-actin antibody alone taken as 100%, the RAS G12D degradation rates were calculated. The 50% degradation values (DC50) were calculated by Sigmoid-Emax model nonlinear regression analysis.

[2] = test system: phosphorylation of ERK (Thr202/Tyr204); assay: ERK phosphorylation inhibitory activity, cell ELISA, PA-TU-8902; format: cell-based; settings: Homo sapiens, read-out: IC50 (ERK phosphorylation inhibition)
Description: Test Example 2: Evaluation of ERK Phosphorylation Inhibitory Activity on Human KRAS G12V Mutant-Positive Pancreatic Cancer Line PA-TU-8902
The ERK phosphorylation inhibitory activities of subject compounds were evaluated by measuring phosphorylation of the 202th threonine (Thr202) and the 204th tyrosine (Tyr204) of ERK located downstream of the KRAS signal by cell ELISA.
PA-TU-8902 cells were seeded at 36 µL/well on a 384-well plate (from Greiner bio-one) to give 5.0×10^3 cells per well. The cell culture conditions were the same conditions as in Test Example 1-1.
The next day, the subject compounds (9 points having final concentrations in the range of 3 μM to 0.3 nM), trametinib (MEK inhibitor) of a final concentration of 300 nM as a positive control and DMSO, which was the solvent for the subject compounds, as a negative control were diluted 100-fold with a fresh medium and were each added at 4 μL per well, followed by culturing for 24 hours. After culturing, a 30% glyoxal solution (40% glyoxal [from Nacalai Tesque] was diluted with PBS) was quickly added at 30 μL per well, and the plate was allowed to stand for an hour and 30 minutes at room temperature to thus immobilize the cells. Then, the plate was centrifuged (110×g, seven seconds, hereinafter centrifugation was performed under the same conditions unless otherwise specified) to remove the supernatant, and 0.1% Triton X-100-containing PBS was added at 20 μL per well. After allowing the plate to stand for 10 minutes at room temperature, the supernatant was removed by centrifugation, and the same operation was further repeated. Next, 0.5% SDS-containing PBS was added at 20 μL per well. The plate was allowed to stand at room temperature for 30 minutes and was then centrifuged to remove the supernatant. Subsequently, a blocking solution (Intercept Blocking Buffer) was added at 20 μL per well, and the plate was allowed to stand for an hour at room temperature. The supernatant was removed by centrifugation, and an ERK (Thr202/Tyr204) phosphorylation antibody (Phospho-p44/42 MAPK (Erk 1/2) (Thr202/Tyr204) (D13.14.4E) XP Rabbit mAb; from Cell Signaling Technology) diluted 2,500-fold with the blocking solution was added at 15 μL per well as a primary antibody. The plate was allowed to stand at 4° C. overnight.
The next day, the plate was centrifuged to remove the supernatant, and 0.05% Tween-20-containing PBS (from Thermo Scientific; 20×PBS Tween-20 was diluted 20-fold with ion exchange water and used) was added at 50 μL per well. The supernatant was removed by centrifugation to thus wash each well. The washing was performed three times in total. After washing, an anti-rabbit IgG antibody diluted 1,000-fold with the blocking solution was added at 15 μL per well as a secondary antibody, and the plate was allowed to stand for an hour at room temperature. The plate was centrifuged to remove the supernatant, and each well was washed three times with 0.05% Tween-20-containing PBS in the same manner as after the primary antibody reaction. Centrifugation after the third washing was performed at 171×g for 17 seconds. After removing the supernatant, the plate was dried as it was with air at room temperature for three hours or more, and the 800-nm fluorescent signals were measured with Aerius.
With the signaling value at the time of addition of DMSO taken as 0% inhibition and with the signaling value at the time of addition of 300 nM trametinib taken as 100% inhibition, the 50% inhibition values (IC50) were calculated by Sigmoid-Emax model nonlinear regression analysis.

[3] = PaTu 8902, PA-TU-8902 cells, 24 hours, 100% = 300 nM trametinib

Question: With `CO[C@@H](C)COc1nc(OC2CN(C(=O)NCCN(C)C)C2)c2cc(C3CC3)c(-c3c(C)c(F)cc4[nH]ncc34)c(OCc3ccc(C(=O)N[C@H](C(=O)N4C[C@H](O)C[C@H]4C(=O)N[C@@H](CO)c4ccc(-c5scnc5C)cc4)C(C)C)cc3)c2n1` [Example 40, N-{4-[({(7M)-6-cyclopropyl-4-[(1-{[2-(dimethylamino)ethyl]carbamoyl}azetidin-3-yl)oxy]-7-(6-fluoro-5-methyl-1H-indazol-4-yl)-2-[(2S)-2-methoxypropoxy]quinazolin-8-yl}oxy)methyl]benzoyl}-L-valyl-(4R)-4-hydroxy-N-{(1R)-2-hydroxy-1-[4-(4-methyl-1,3-thiazol-5-yl)phenyl]ethyl}-L-prolinamide] as the compound, how does the DC50 [1] read?
Answer: The DC50 was 47 nM.

Question: What about the pIC50 ([2]; PaTu 8902, 24 h) of the same compound?
Answer: Its pIC50 is 7.28.

Question: For `CO[C@@H](C)COc1nc(N[C@H]2C[C@H](OCCN(C)C)C2)c2cc(C3CC3)c(-c3c(C)c(F)cc4[nH]ncc34)c(OCc3ccc(-c4cn([C@H](C(=O)N5C[C@H](O)C[C@H]5C(=O)N[C@@H](CO)c5ccc(-c6scnc6C)cc5)C(C)C)nn4)cc3)c2n1` (atropisomer, axis not shown) [Example 23], which DC50 [1] is on record?
Answer: Its DC50 is 1 nM.

Question: What about the pIC50 [2, 3] of the same compound?
Answer: Its pIC50 is 6.97.

Question: With `CO[C@@H](C)COc1nc(NC2CN(C(=S)N3CC(CN(C)C)C3)C2)c2cc(C3CC3)c(-c3c(C)c(F)cc4[nH]ncc34)c(OCc3ccc(-c4cn([C@H](C(=O)N5C[C@H](O)C[C@H]5C(=O)N[C@@H](CO)c5ccc(-n6cncn6)cc5)C(C)C)nn4)cc3)c2n1` (atropisomer, axis not shown) [Example 26] as the compound, how does the DC50 [1] read?
Answer: The DC50 was 6 nM.

Question: What about the pIC50 [2, 3] of the same compound?
Answer: The pIC50 was 7.82.

Question: With `CNCCNC(=O)N1CC(Oc2nc(OC[C@H](C)OC)nc3c(OCc4ccc(-c5cn([C@H](C(=O)N6C[C@H](O)C[C@H]6C(=O)N[C@@H](CO)c6ccc(-c7scnc7C)cc6)C(C)C)nn5)cc4)c(-c4c(C)c(F)cc5[nH]ncc45)c(C4CC4)cc23)C1` (atropisomer, axis not shown) [Example 18] as the compound, how does the DC50 [1] read?
Answer: The DC50 was 26 nM.

Question: And the pIC50 [2, 3]?
Answer: Its pIC50 is 7.48.

Question: What does the source list for `CO[C@@H](C)COc1nc(NC2CN(C(=O)O[C@H]3C[C@@H](N(C)C)C3)C2)c2cc(C3CC3)c(-c3c(C)c(F)cc4[nH]ncc34)c(OCc3ccc(-c4cn([C@H](C(=O)N5C[C@H](O)C[C@H]5C(=O)N[C@@H](CO)c5ccc(-n6cncn6)cc5)C(C)C)nn4)cc3)c2n1` (atropisomer, axis not shown; (M)) [Example 2, (1s,3R)-3-(dimethylamino)cyclobutyl 3-({(7M)-6-cyclopropyl-7-(6-fluoro-5-methyl-1H-indazol-4-yl)-8-{[4-(1-{(2S)-1-[(2S,4R)-4-hydroxy-2({(1R)-2-hydroxy-1-[4-(1H-1,2,4-triazol-1-yl)phenyl]ethyl}carbamoyl)pyrrolidin-1-yl]-3-methyl-1-oxobutan-2-yl}-1H-1,2,3-triazol-4-yl)phenyl]methoxy}-2-[(2S)-2-methoxypropoxy]quinazolin-4-yl}amino)azetidine-1-carboxylate]?
Answer: DC50 [1]: 5 nM; pIC50 [2, 3]: 7.80

Question: `COC(C)(C)COc1cc(OC2CN(C(=O)N3CC(CN(C)C)C3)C2)c2cc(C3CC3)c(-c3c(C)c(F)cc4[nH]ncc34)c(OCc3ccc(-c4cn([C@H](C(=O)N5C[C@H](O)C[C@H]5C(=O)N[C@@H](CO)c5ccc(-n6cncn6)cc5)C(C)C)nn4)cc3)c2n1` (atropisomer, axis not shown) [Example 9] was tested. Which DC50 [1] did it give?
Answer: The DC50 was 5 nM.

Question: What about the pIC50 [2, 3] of the same compound?
Answer: Its pIC50 is 7.92.

Question: For `CO[C@@H](C)COc1cc(OC2CN(C(=O)CCCN(C)C)C2)c2cc(C3CC3)c(-c3c(C)c(F)cc4[nH]ncc34)c(OCc3ccc(-c4cn([C@H](C(=O)N5C[C@H](O)C[C@H]5C(=O)N[C@@H](CO)c5ccc(-n6cncn6)cc5)C(C)C)nn4)cc3)c2n1` (atropisomer, axis not shown; (M)) [Example 41, (4R)-1-[(2S)-2-(4-{4-[({(7M)-6-cyclopropyl-4-({1-[4-(dimethylamino)butanoyl]azetidin-3-yl}oxy)-7-(6-fluoro-5-methyl-1H-indazol-4-yl)-2-[(2S)-2-methoxypropoxy]quinolin-8-yl}oxy)methyl]phenyl}-1H-1,2,3-triazol-1-yl)-3-methylbutanoyl]-4-hydroxy-N-{(1R)-2-hydroxy-1-[4-(1H-1,2,4-triazol-1-yl)phenyl]ethyl}-L-prolinamide], which DC50 [1] is on record?
Answer: The DC50 was 3 nM.

Question: What about the pIC50 [2, 3] of the same compound?
Answer: The pIC50 was 7.62.

Question: What does the source list for `CO[C@@H](C)COc1cc(OC2CN(C(=O)N3CC(CN(C)C)C3)C2)c2cc(C3CC3)c(-c3c(C)c(F)cc4[nH]ncc34)c(OCc3ccc(-c4cn([C@H](C(=O)N5C[C@H](O)C[C@H]5C(=O)N[C@@H](CO)c5ccc(-n6cncn6)cc5)C(C)C)nn4)cc3)c2n1` (atropisomer, axis not shown; (M)) [Example 5, (4R)-1-[(2S)-2-(4-{4-[({(7M)-6-cyclopropyl-4-[(1-{3-[(dimethylamino)methyl]azetidine-1-carbonyl}azetidin-3-yl)oxy]-7-(6-fluoro-5-methyl-1H-indazol-4-yl)-2-[(2S)-2-methoxypropoxy]quinolin-8-yl}oxy)methyl]phenyl}-1H-1,2,3-triazol-1-yl)-3-methylbutanoyl]-4-hydroxy-N-{(1R)-2-hydroxy-1-[4-(1H-1,2,4-triazol-1-yl)phenyl]ethyl}-L-prolinamide]?
Answer: DC50 [1]: 6 nM; pIC50 [2, 3]: 8.10
